Ends that are not written are not given here.
Legend:
[1] = test system: PKC purified from rat brain; assay: IQ Platform PKC/PS inhibitor study (fluorescence quench kinase assay); type: biochemical; details: Hill slope of the dose response inhibition curve
Procedure: IQ™ Working Solution was prepared by mixing 9 volumes of IQ™ Reagent A and 1 volume of IQ™ Reagent B prior to use to provide full strength IQ™ WS (1×IQ™ WS). The full-strength working solution was further diluted with water to prepare half-strength or quarter-strength IQ™ working solution. In 96 well assays, 4× reaction volume of quarter-strength was added and in 384 and 1536 well assays, 2× reaction volume of half-strength was added.
Enzymatic assays were conducted at room temperature for 1 hour unless otherwise indicated. Reactions were carried out in microwell plates and initiated by addition of ATP or enzyme. Kinase experiments used PKC purified from rat brain. PKC assays were conducted in a final enzyme reaction mixture consisting of 20 mM HEPES, 1 mM CaCl2, 5 mM MgCl2, 1 mM disodium ATP, 1 mM DTT, 0.2 mg/ml phosphatidyl-L-serine, pH 7.4. […] The amounts of enzyme utilized reflect a common unit definition where 1 mU of enzyme is the amount of enzyme required to transfer 1 pmole phosphate per minute at 30° C.
Peptides were labeled on the N-terminus with a proprietary red fluorescent label. Fluorescence was measured using either a BMG PolarStar™ or BMG Optima™ fluorescent plates readers with a 560/590 excitation/emission filter set for the red-fluorophore label.
Inhibitor studies using the IQ Platform with PKC/PS: IC50 values for known PKC inhibitors were determined using fluorophore-labeled pseudosubstrate peptide as the substrate. Inhibitor studies were carried out in triplicate using 500 μU PKC per μl of final enzyme reaction mixture and 60 μM peptide substrate. Inhibitors, diluted in either aqueous solution for water-soluble inhibitors or in 10% DMSO for water-insoluble inhibitors, were incubated with the enzyme for 20 minutes at room temperature, after which the enzymatic reaction was initiated by addition of ATP at a final concentration of 20 μM. The enzymatic reaction was carried out for 1 hour at room temperature followed by addition of 36 μl of 0.5×IQ WS per well. Fluorescence was then measured and data were analyzed using sigmoidal nonlinear regression.

PKC = details: literature value, Kuo, J. F. (1994); read-out: Previously Reported IC50; cited from earlier work

Compound | Calculated Hillslope Best Fit [1] | IC50 (PKC)
Pseudosubstrate PKC Inhibitor Peptide 19-31: known PKC inhibitor peptide; competitive, peptide binding site (RFARKGALRQKNV; UniProt P17252 19-31, looked up, fragment) | 0.8462 | 100 nM
CN[C@@H]1C[C@H]2O[C@@](C)([C@@H]1OC)n1c3ccccc3c3c4c(c5c6ccccc6n2c5c31)C(=O)NC4 [Staurosporine] | 1.225 | […]
Pseudosubstrate PKC Inhibitor Peptide 19-36: known PKC inhibitor peptide; competitive, peptide binding site (RFARKGALRQKNVHEVKD; UniProt P17252 19-36, looked up, fragment) | 1.265 | 147 nM
Calphostin C | 1.675 | 50 nM
CN(C)CCCn1cc(C2=C(c3c[nH]c4ccccc34)C(=O)NC2=O)c2ccccc21 [Bisindolylmaleimide I] | 1.160 | 10 nM
Myristoylated Protein Kinase C Inhibitor 20-28, Cell-Permeable: known PKC inhibitor peptide; competitive, peptide binding site (FARKGALRQ; also: myristoylated (place not given here); UniProt P17252 20-28, looked up, fragment) | 0.9018 | 8000 nM

From patent publication US20050032121A1, “Method of analyzing data obtained from a biological assay” (Pierce Biotechnology, Inc., priority 2003, published 2005)
